Measured values reported in paper PMC5761851, “Application of a phenotypic drug discovery strategy to identify biological and chemical starting points for inhibition of TSLP production in lung epithelial cells” (PLoS ONE, 2018).

Experiments:
Test in all cases: kinase selectivity panel
Format in all cases: biochemical
[1] = target: T1, MAPK1 (Homo sapiens, UniProt P27361); details: read-out: percentage of control activity (POC), MAPK1
T1 construct: purchased Eurofins Pharma Discovery Services (KinaseProfiler; Cerep BioPrint panel)
Procedure, shortened: (§1)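 The compound is screened at 10 μM in duplicate against 125 representative kinases. Selected activities are followed up with a nine-concentration duplicate titration to give IC50.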

[2] = target: T2, IKKβ (Homo sapiens, UniProt O14920); details: read-out: percentage of control activity (POC), IKKβ
T2 construct: purchased Eurofins Pharma Discovery Services (KinaseProfiler; Cerep BioPrint panel)
T2 sequence (O14920 1-756): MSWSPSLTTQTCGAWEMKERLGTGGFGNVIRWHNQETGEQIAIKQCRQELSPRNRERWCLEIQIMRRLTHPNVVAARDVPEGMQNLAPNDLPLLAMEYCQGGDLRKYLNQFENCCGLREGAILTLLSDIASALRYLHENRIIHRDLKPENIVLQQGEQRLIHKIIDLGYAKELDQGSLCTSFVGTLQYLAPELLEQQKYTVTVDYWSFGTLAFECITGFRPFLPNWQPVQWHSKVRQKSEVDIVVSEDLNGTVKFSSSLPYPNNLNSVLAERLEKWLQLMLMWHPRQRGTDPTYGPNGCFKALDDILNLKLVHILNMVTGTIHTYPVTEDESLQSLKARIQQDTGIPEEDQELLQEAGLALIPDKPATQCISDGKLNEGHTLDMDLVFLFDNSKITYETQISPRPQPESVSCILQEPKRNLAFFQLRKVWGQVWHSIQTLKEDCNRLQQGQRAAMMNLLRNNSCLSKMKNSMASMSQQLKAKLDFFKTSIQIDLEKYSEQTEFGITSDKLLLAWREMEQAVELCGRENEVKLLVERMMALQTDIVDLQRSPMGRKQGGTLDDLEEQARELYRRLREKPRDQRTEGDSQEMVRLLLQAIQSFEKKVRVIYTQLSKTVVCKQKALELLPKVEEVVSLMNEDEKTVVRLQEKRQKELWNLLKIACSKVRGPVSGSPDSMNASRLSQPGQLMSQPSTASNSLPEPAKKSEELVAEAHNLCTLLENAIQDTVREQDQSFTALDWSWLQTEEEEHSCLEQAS
Procedure, shortened: as §1

[3] = target: T3, MKK6 (Homo sapiens, UniProt P52564); details: for remaining activity at 10 µM: read-out: percentage of control activity (POC), MKK6
T3 construct: purchased Eurofins Pharma Discovery Services (KinaseProfiler; Cerep BioPrint panel)
T3 sequence (P52564 1-334): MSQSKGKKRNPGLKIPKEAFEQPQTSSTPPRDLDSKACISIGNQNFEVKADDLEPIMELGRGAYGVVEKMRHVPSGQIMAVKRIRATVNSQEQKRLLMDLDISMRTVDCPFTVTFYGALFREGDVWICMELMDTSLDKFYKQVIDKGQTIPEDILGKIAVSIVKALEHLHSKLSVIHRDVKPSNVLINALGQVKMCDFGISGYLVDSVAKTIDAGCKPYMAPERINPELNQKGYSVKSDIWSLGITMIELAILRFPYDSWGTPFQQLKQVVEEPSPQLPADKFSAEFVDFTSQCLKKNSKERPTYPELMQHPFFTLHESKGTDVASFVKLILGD
Procedure, shortened: as §1

[4] = target: T4, MST1 (Homo sapiens, UniProt Q13043); details: read-out: percentage of control activity (POC), MST1
T4 construct: purchased Eurofins Pharma Discovery Services (KinaseProfiler; Cerep BioPrint panel)
T4 sequence (Q13043 1-487): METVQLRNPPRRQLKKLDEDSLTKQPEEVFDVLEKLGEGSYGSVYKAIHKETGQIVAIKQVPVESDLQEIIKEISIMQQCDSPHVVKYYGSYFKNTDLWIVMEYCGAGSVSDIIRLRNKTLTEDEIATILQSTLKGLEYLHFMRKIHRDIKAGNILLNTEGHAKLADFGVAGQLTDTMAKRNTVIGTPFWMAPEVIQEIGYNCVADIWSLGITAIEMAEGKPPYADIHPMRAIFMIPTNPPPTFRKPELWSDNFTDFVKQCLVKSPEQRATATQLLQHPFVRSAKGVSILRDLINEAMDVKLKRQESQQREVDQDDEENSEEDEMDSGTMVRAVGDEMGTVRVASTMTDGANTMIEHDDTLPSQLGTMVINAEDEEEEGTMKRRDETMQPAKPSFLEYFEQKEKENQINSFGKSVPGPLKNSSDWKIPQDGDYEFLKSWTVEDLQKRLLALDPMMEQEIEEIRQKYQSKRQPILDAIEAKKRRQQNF
Procedure, shortened: as §1

[5] = target: T5, PKCθ (Homo sapiens, UniProt Q04759); details: read-out: percentage of control activity (POC), PKCθ
T5 construct: purchased Eurofins Pharma Discovery Services (KinaseProfiler; Cerep BioPrint panel)
Procedure, shortened: as §1

[6] = target: T6, EphA5 (Homo sapiens, UniProt P54756); details: read-out: percentage of control activity (POC), EphA5
T6 construct: purchased Eurofins Pharma Discovery Services (KinaseProfiler; Cerep BioPrint panel)
Procedure, shortened: as §1

[7] = target: T7, PKCι (Homo sapiens, UniProt P41743); details: read-out: percentage of control activity (POC), PKCι
T7 construct: purchased Eurofins Pharma Discovery Services (KinaseProfiler; Cerep BioPrint panel)
T7 sequence (P41743 1-596): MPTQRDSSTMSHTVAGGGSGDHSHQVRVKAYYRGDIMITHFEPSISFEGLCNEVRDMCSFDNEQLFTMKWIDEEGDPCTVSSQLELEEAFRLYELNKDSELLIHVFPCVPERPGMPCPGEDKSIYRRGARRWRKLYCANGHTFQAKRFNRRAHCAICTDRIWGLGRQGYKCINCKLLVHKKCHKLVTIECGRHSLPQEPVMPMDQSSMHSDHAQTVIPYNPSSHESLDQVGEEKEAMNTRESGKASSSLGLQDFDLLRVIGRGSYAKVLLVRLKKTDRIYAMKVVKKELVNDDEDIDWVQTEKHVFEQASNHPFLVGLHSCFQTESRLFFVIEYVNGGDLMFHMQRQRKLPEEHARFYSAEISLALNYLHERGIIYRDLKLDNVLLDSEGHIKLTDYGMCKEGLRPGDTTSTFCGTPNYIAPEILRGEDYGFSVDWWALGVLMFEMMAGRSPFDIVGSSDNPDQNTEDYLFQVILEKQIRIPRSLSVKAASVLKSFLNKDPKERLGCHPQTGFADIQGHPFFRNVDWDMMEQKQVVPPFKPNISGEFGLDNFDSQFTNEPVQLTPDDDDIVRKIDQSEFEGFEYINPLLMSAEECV
Procedure, shortened: as §1

[8] = target: T8, EphA2 (Homo sapiens, UniProt P29317); details: read-out: percentage of control activity (POC), EphA2
T8 construct: purchased Eurofins Pharma Discovery Services (KinaseProfiler; Cerep BioPrint panel)
Procedure, shortened: as §1

[9] = target: T9, Lyn (Homo sapiens, UniProt P07948); details: read-out: percentage of control activity (POC), Lyn
T9 construct: purchased Eurofins Pharma Discovery Services (KinaseProfiler; Cerep BioPrint panel)
Procedure, shortened: as §1

T5 sequence (Q04759 whole entry): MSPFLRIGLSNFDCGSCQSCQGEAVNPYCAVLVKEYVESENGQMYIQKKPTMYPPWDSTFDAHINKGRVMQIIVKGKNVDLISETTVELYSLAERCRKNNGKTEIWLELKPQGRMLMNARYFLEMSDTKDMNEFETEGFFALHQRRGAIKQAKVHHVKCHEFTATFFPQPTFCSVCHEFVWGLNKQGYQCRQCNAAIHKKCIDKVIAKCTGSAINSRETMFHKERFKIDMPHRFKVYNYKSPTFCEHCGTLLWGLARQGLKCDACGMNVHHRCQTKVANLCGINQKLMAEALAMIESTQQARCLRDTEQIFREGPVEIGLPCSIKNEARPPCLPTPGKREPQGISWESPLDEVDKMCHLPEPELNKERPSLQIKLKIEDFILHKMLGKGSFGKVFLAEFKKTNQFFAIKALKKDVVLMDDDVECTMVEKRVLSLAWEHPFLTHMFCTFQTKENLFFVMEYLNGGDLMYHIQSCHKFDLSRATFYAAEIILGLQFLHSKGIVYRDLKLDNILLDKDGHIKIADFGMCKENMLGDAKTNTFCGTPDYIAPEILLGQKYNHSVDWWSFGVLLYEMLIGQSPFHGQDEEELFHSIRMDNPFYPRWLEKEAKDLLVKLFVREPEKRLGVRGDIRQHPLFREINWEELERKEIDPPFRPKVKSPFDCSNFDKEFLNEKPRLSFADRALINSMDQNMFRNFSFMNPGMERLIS
T9 sequence (P07948 whole entry): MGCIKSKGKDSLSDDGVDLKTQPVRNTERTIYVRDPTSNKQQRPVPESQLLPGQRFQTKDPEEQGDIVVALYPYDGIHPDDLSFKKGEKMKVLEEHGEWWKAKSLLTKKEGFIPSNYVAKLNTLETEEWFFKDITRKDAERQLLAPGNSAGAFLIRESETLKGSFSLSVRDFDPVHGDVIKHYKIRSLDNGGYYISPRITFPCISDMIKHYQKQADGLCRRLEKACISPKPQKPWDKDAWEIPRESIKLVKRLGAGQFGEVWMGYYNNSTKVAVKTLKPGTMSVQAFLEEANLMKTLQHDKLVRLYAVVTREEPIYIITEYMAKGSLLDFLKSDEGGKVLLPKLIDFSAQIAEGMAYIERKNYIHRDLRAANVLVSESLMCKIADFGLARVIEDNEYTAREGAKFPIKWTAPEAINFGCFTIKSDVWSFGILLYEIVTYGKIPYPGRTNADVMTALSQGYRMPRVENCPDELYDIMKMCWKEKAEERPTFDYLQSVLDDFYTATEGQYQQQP
T6 sequence (P54756 25-1037): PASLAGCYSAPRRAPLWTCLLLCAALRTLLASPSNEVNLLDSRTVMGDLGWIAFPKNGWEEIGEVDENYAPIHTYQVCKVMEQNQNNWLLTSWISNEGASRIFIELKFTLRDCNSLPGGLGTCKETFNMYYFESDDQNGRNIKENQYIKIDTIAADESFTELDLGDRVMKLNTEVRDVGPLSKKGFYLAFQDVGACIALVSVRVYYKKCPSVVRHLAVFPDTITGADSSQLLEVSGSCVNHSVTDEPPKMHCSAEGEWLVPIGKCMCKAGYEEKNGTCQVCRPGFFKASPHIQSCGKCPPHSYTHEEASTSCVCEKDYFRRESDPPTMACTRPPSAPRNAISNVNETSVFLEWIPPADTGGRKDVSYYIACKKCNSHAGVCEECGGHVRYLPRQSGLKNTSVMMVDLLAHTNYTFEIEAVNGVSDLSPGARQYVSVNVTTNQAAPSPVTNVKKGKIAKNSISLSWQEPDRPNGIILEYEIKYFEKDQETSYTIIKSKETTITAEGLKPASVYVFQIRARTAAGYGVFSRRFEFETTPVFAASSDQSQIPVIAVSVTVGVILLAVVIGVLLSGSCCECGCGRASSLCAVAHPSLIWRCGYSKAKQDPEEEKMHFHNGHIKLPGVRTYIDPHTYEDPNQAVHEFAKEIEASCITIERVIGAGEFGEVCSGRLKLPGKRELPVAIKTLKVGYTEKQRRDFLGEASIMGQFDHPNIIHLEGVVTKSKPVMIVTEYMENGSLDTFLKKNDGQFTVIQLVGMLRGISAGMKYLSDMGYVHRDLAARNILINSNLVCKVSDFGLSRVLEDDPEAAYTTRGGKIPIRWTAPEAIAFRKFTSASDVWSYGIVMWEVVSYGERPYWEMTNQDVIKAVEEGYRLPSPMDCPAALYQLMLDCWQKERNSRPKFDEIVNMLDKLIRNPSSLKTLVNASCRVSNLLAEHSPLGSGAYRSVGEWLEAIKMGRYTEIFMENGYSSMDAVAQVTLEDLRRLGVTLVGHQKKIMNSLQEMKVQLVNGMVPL
T1 sequence (P27361 whole entry): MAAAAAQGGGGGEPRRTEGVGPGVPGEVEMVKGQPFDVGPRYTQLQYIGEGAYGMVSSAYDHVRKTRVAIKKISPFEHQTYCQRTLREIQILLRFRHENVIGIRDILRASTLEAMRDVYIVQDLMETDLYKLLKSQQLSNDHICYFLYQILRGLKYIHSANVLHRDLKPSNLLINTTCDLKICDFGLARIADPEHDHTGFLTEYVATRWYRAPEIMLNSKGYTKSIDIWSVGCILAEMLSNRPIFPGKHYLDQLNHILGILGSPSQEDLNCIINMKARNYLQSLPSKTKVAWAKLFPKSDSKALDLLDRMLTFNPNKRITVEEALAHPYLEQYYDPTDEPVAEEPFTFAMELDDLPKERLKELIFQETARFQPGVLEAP
T8 sequence (P29317 24-976): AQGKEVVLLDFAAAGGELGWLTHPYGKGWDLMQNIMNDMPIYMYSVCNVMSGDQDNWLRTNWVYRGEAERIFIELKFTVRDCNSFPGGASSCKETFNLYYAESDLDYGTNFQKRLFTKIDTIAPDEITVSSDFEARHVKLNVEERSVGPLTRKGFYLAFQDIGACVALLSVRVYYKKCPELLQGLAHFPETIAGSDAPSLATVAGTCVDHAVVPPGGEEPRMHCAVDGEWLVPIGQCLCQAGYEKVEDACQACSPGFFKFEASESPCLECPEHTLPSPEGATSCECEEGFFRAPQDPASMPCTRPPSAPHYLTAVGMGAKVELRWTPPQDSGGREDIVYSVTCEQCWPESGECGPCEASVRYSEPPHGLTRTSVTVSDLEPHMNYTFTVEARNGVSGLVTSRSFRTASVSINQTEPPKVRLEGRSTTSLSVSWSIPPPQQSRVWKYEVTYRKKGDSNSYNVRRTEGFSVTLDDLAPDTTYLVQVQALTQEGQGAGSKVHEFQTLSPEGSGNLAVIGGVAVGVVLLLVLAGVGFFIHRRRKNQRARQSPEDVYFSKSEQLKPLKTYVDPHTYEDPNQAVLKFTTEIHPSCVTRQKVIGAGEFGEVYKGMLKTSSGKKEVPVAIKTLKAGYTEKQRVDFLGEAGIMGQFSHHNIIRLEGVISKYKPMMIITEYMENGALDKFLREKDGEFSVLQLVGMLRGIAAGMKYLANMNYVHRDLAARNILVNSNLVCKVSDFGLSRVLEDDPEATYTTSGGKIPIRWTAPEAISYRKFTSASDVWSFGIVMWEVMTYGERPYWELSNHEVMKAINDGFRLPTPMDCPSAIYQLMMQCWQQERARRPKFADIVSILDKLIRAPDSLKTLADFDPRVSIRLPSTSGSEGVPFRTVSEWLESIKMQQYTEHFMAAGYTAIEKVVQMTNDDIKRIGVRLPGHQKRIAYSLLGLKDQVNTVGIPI

SMILES	remaining activity at 10 µM [1]	remaining activity at 10 µM [2]	inhibition at 10 µM [3]	remaining activity at 10 µM [3]	remaining activity at 10 µM [4]	remaining activity at 10 µM [5]	remaining activity at 10 µM [6]	remaining activity at 10 µM [7]	remaining activity at 10 µM [8]	remaining activity at 10 µM [9]
Cn1cc(-c2cccc(-c3nc(C(=O)NC4C5CC6CC4CC(O)(C6)C5)c(N)nc3N)c2)cn1 (stereo not drawn) [compound 4]	96%	95%	–	80%	58%	84%	93%	87%	97%	66%
CS(=O)(=O)N1CCN(c2ccc(Nc3ncc(C(N)=O)c(NC4CC4)n3)cc2)CC1 [compound 5]	34%	8%	–	32%	-1%	26%	56%	83%	57%	5%
COc1c(NC(=O)c2ccc(C)c(-c3nnc4c(NCC(C)(C)C)nccn34)c2)cc(C(C)(C)C)cc1NS(C)(=O)=O [compound 7, reference compound]	85%	127%	~100%	-3%	101%	98%	65%	103%	63%	66%

Second part, the compound after the results:

remaining activity at 10 µM [1]	remaining activity at 10 µM [2]	inhibition at 10 µM [3]	remaining activity at 10 µM [3]	remaining activity at 10 µM [4]	remaining activity at 10 µM [5]	remaining activity at 10 µM [6]	remaining activity at 10 µM [7]	remaining activity at 10 µM [8]	remaining activity at 10 µM [9]	SMILES
105%	102%	~100%	0%	103%	91%	95%	103%	103%	104%	CC(C)(C)N1CCC(c2cc(-c3ccc(F)cc3Cl)c3cc[n+]([O-])c(-c4c(Cl)cccc4Cl)c3n2)CC1 [compound 2]
88%	107%	~100%	-3%	88%	97%	99%	100%	100%	101%	Cc1ccc(C(=O)NCC2CC2)cc1-c1ccc2c(c1)NC(=O)C21CCCC1 [compound 3]
